The subject of assay [1] is human normal gastric mucosa cell (GES-1). The assay can be described thus: Proliferative inhibition of human normal cell (MTT). The settings on record: GES1; MTT, human normal gastric mucosa cell; read-out: GES-1 IC50. The assay is classed as cell-based. The source says:
In order to determine the selective cell toxicity of selected compounds. We subsequently conducted a proliferative inhibition assay with human normal gastric mucosa cell (GES-1).

The test system of the next assay is NHP2. Nature of the assay: Western blot, NHP2. Particulars: SGC-7901, 1, 2 and 4 μM, 48 h. The assay is classed as cell-based, human. The method, then:
(§1) An equivalent volume of 5 × SDS-sample buffer was added to cell lysates and boiled for 10 min. The supernatants were subjected to electrophoresis on SDS-PAGE gels and transferred to PVDF membrane by using a Bio-Rad apparatus. Membranes were blocked for 3 h at room temperature in TBST containing 5% non-fat dried milk and probed overnight at 4 °C with antibodies. CyclinD1 (abcam, ab134175, 1:10000), CDC25A (abcam, ab156574, 1:1000), CDC25C (abcam, ab32051, 1:1000), bcl-2 (abcam, ab32124,1:1000), bax (abcam, ab32503, 1:1000), PARP (abcam, ab191217, 1:1000), γH2AX (abcam, ab81299, 1:5000), dyskerin (abcam, ab156877, 1:1000), NHP2 (abcam, ab180498, 1:1000), NOP10 (abcam, ab133726, 1:1000) antibody was performed with rabbit primary antibody. Otherwise, β-actin (ZSGB-BIO, 1:1000) detection was performed with mouse primary antibody which was served as internal controls. Protein bands of β-actin was visualised using peroxidase-labeled goat anti-mouse and others were visualised using peroxidase-labeled goat anti-rabbit secondary antibody (1:5000 dilution, 1 h, room temperature), and the protein expression signals were detected by the BeyoECL Plus (Beyotime).

The target in a further assay is T1, telomerase (Homo sapiens, UniProt O14746).
T1 construct: endogenous in cells; host or cells: SGC-7901
The assay can be described thus: Telomerase activity assay (TRAP-PCR-ELISA). The assay is classed as biochemical. Particulars: SGC-7901 cells extracts, 24-h treatment, mean ± SD. How it is done: Inhibit of telomerase activity was tested using the TRAP-PCR-ELISA assay. In detail, the SGC-7901 cells were firstly maintained in DMEM medium (GIBCO, New York) supplemented with 10% fetal bovineserum (GIBCO, NewYork), streptomycin (0.1 mg/mL) and penicillin (100 IU/mL) at 37 °C in a humidified atmosphere containing 5% CO2. After trypsinisation, 5 × 10^4 cultured cells in logarithmic growth were seeded into T25 flasks (Corning, New York) and cultured to allow to adherence. The cells were then incubated with Staurosporine (Santa Cruz, Santa Cruz) and the drugs with a series of concentration as 60, 20, 6.67, 2.22, 0.74, 0.25 and 0.082 l g/mL, respectively. After 24-h treatment, the cells were harvested by cell scraper orderly following by washed once with PBS. The cells were lysed in 150 µL RIPA cell lysis buffer (Santa Cruz, Santa Cruz) and incubated on ice for 30 min. The cellular supernatants were obtained via centrifugation at 12,000 g for 20 min at 4 °C and stored at −80 °C. The TRAP-PCR-ELISA assay was performed using a telomerase detection kit (Roche, Basel, Switzerland) according to the manufacturer’s protocol. In brief, 2 µL of cell extracts were mixed with 48 µL TRAP reaction mixtures. PCR was then initiated at 94 °C, 120 s for predenaturation and performed using 35 cycles each consisting of 94 °C for 30 s, 50 °C for 30 s, 72 °C for 90 s. Then 20 µL of PCR products were hybridised to a digoxigenin (DIG)-labeled telomeric repeat specific detection probe. And the PCR products were immobilised via the biotin-labeled primer to a streptavidin-coated microtiter plate subsequently. The immobilised DNA fragment were detected with a peroxidase-conjugated anti-DIG antibody and visualised following addition of the stop regent. The microtitre plate was assessed on TECAN Infinite M200 microplate reader (Mannedorf, Switzerland) at a wavelength of 490 nm, and the final value were presented as mean ± SD.

The test system of a further assay is Bcl-2/Bax. Nature of the assay: Western blot, Bcl-2/Bax. The assay is classed as cell-based, human. The settings on record: SGC-7901, 1, 2 and 4 μM, 48 h. The method, then: as §1
The test system of the next assay is CDC25A. The assay can be described thus: Western blot, CDC25A. The assay is classed as cell-based, human. The settings on record: SGC-7901, 1, 2 and 4 μM, 48 h. How it is done:
as §1

The subject of assay [2] is DEN-induced rat hepatic tumor. Nature of the assay: In vivo tumor model, DEN-induced rat hepatic tumor (HE histopathology). Particulars: DEN-induced SD rats, 50 mg·kg−1 orally once a day, 10 weeks. The method, then:
SD rats, male, 120 ∼ 160 g. 120 rats were divided randomly into two groups containing 12 normal rats and 108 DEN model rats. Rats were gavaged daily with DEN 8 mg/kg, once a day, 6 days a week. Normal saline rats were given the same volume, molding to 10 weeks. 60 model rats were randomly divided into five groups, 12 rats in each group, continued to give DEN; normal rats were given normal saline, molding to 16 week, stopped giving DEN. Compound 5i treatment group from the 10th week, 50 mg·kg^−1 was orally given, once a day, for 10 consecutive weeks. Similar parts of left lobe of liver were taken and fixed by 4% polyformaldehyde solution, embedded in paraffin, sliced and HE stained, for histopathological observation.

The test system of assay [3] is human gastric cancer cells SGC-7901. The assay can be described thus: MTT anticancer assay, SGC-7901. The assay is classed as cell-based. The method, then:
(§2) The MTT was purchased from Sigma. Cell Cycle Analysis Kit and Apoptosis Analysis Kit were purchased from Bestbio (China). Mitochondrial membrane potential assay kit with JC-1 was purchased from Beyotime (China). All the materials were used as received without further purification unless noted specifically. The cell culture was maintained on DMEM medium (Hyclone, US) supplemented with 10% fetal bovine serum (Sijiqing, China), 100 U/mL penicillin and 100 µg/mL streptomycin in 25-cm^2 culture flasks at 37 °C humidified atmosphere with 5% CO2. Drugs were dissolved in DMSO and filtered through 0.22-µm pore-size filter units before addition to cell line appropriate media. When tumor cells were grown to log phase, diluting to 5 × 10^4 cells mL^−1 with the complete medium, 100 µL of the obtained cell suspension was added to each well of 96-well culture plates. The subsequent incubation was performed at 37 °C, 5% CO2 atmosphere for 48 h before subjecting to anti-proliferation assessment. After 48-h exposure period, 20 µL of PBS containing 5 mg·mL^−1 of MTT was added to each well. After 4 h, the medium was replaced by 150 µL DMSO to dissolve the purple formazan crystals produced. […] The data represented the mean of three experiments in triplicate and were expressed as means ± SD.

The test system of assay [4] is human cervical cancer cell Hela. Nature of the assay: MTT anticancer assay, Hela. In kind it is cell-based. The settings on record: MTT, 48 h exposure, mean ± SD, read-out: IC50 Hela. How it is done:
as §2

Each structure is given as a SMILES string.

T1 sequence (O14746 whole entry): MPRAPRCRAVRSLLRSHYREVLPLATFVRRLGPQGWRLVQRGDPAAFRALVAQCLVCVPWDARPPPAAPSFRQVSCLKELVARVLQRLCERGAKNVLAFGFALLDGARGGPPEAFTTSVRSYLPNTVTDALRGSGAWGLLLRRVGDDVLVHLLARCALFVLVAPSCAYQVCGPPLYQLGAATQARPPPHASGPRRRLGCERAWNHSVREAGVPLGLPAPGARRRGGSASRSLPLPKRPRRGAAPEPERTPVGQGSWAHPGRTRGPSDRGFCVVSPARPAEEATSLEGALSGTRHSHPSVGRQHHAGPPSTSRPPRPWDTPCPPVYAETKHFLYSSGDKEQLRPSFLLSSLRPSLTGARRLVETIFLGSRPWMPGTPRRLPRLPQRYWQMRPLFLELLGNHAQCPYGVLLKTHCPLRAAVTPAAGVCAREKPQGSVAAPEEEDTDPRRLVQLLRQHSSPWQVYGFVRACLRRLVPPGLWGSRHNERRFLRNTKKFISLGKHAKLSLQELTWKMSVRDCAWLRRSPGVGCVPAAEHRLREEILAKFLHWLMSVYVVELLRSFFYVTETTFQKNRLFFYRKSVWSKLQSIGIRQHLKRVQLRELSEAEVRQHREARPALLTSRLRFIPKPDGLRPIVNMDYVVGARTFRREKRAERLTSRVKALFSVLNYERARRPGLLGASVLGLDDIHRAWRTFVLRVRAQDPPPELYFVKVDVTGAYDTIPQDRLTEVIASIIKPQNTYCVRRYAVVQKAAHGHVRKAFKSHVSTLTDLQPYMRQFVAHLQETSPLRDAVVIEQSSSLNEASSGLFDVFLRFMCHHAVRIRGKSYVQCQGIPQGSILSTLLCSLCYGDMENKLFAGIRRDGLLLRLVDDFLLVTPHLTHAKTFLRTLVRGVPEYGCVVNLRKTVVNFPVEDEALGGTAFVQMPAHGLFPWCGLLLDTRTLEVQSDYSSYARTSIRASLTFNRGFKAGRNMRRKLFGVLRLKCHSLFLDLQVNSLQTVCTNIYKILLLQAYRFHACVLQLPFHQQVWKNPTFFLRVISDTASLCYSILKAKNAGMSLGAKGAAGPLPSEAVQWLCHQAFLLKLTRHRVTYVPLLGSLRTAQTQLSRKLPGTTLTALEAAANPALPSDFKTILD
T1 sequence (O60832 whole entry partner): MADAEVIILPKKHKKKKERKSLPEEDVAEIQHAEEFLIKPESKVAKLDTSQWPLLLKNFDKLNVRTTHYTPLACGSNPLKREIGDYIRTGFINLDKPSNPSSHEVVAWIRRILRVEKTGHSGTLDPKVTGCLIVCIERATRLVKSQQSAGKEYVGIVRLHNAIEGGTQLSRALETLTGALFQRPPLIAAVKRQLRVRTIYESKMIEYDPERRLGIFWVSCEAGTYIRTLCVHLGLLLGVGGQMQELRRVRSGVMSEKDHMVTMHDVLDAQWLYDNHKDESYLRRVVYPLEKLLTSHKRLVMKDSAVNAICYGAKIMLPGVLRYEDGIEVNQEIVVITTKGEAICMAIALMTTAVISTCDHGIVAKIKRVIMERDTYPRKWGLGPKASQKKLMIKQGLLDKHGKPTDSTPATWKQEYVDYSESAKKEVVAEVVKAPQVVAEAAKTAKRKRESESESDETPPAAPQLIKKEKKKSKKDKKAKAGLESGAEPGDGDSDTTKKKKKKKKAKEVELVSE
T1 sequence (Q9NX24 whole entry partner): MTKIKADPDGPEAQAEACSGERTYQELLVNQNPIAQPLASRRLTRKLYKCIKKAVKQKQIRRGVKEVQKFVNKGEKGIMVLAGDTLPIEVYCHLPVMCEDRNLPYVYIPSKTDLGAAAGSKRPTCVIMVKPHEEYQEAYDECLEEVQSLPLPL
T1 sequence (Q9NPE3 whole entry partner): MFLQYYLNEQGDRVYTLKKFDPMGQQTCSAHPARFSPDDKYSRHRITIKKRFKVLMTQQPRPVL
T1 sequence (Q9NY12 whole entry partner): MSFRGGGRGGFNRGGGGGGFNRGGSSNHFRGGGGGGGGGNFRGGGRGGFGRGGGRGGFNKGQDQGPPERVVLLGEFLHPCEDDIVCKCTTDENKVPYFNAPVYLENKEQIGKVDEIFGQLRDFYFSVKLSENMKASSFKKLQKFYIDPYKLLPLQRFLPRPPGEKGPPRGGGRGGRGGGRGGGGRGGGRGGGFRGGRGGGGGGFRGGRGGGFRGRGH

Turning to `COc1cc(OC)c2c(=O)c(OCCCCN3CCN(C(=O)c4ccncc4)CC3)c(-c3cc(OC)c(OC)c(OC)c3)oc2c1` [Compound 5i, 3-(4-(4-isonicotinoylpiperazin-1-yl)butoxy)-5,7-dimethoxy-2-(3,4,5-trimethoxyphenyl)-4H-chromen-4-one], the IC50 came to 3710 ± 330 µM in assay [1]; 0.89 ± 0.17 µM on telomerase; 1.35 ± 0.17 µM in assay [3] (Homo sapiens, SGC-7901, MTT, 48 h exposure, mean ± SD); 1.02 ± 0.21 µM in assay [4]. Moreover, the “NHP2 protein level (western blot)” value in the assay on NHP2 is reported as “no significant changes”. For the same compound, the “proportion of Bcl-2/Bax (western blot)” value with Bcl-2/Bax is given as “reduced”. Further, the “expression of CDC25A (western blot)” value in the assay on CDC25A is on record as “significantly decrease”. The “pathological changes of rat hepatic tumor (HE staining)” value in assay [2] was “significantly improve pathological changes”. In addition, the “activity against SGC-7901 cells (in words)” value in assay [3] is “good activity”.

Values taken from article PMC6104605, “Discovery of new chromen-4-one derivatives as telomerase inhibitors through regulating expression of dyskerin” (Journal of Enzyme Inhibition and Medicinal Chemistry, 2018).
